PubChem BioAssay (NCI)
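Cultured in 96-well plates, cells were exposed to test compound for 48 hours across five concentrations. At the GI50, growth is halved. TGI denotes the concentration required for complete inhibition of growth.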

Assays:
Test in all cases: DTP human tumour cell line panel, 48 h
SN12C renal = tested on: SN12C renal
NCI-H23 lung = tested on: NCI-H23 lung
T-47D breast = tested on: T-47D breast
MCF7 breast = tested on: MCF7 breast
U251 CNS = tested on: U251 CNS
RPMI-8226 leukemia = tested on: RPMI-8226 leukemia
HT29 colon = tested on: HT29 colon
UACC-62 melanoma = tested on: UACC-62 melanoma
OVCAR-8 ovarian = tested on: OVCAR-8 ovarian
A498 renal = tested on: A498 renal
786-0 renal = tested on: 786-0 renal
MDA-MB-231 breast = tested on: MDA-MB-231 breast
LOX IMVI melanoma = tested on: LOX IMVI melanoma
M14 melanoma = tested on: M14 melanoma
SK-MEL-5 melanoma = tested on: SK-MEL-5 melanoma
SNB-75 CNS = tested on: SNB-75 CNS
DU-145 prostate = tested on: DU-145 prostate
UACC-257 melanoma = tested on: UACC-257 melanoma
MALME-3M melanoma = tested on: MALME-3M melanoma
ACHN renal = tested on: ACHN renal
MDA-MB-435 = tested on: MDA-MB-435
OVCAR-4 ovarian = tested on: OVCAR-4 ovarian
COLO 205 colon = tested on: COLO 205 colon
SF-295 CNS = tested on: SF-295 CNS
TK-10 renal = tested on: TK-10 renal
HL-60(TB) leukemia = tested on: HL-60(TB) leukemia
SF-268 CNS = tested on: SF-268 CNS
HCT-15 colon = tested on: HCT-15 colon
SW-620 colon = tested on: SW-620 colon
OVCAR-3 ovarian = tested on: OVCAR-3 ovarian
UO-31 renal = tested on: UO-31 renal
NCI-H226 lung = tested on: NCI-H226 lung
SNB-19 CNS = tested on: SNB-19 CNS
SF-539 CNS = tested on: SF-539 CNS
A549 NSCLC = tested on: A549 NSCLC
CCRF-CEM leukemia = tested on: CCRF-CEM leukemia
HCT-116 colon = tested on: HCT-116 colon
EKVX NSCLC = tested on: EKVX NSCLC
NCI-H522 lung = tested on: NCI-H522 lung
CAKI-1 renal = tested on: CAKI-1 renal
NCI-H460 lung = tested on: NCI-H460 lung
SK-MEL-2 melanoma = tested on: SK-MEL-2 melanoma
OVCAR-5 ovarian = tested on: OVCAR-5 ovarian
HOP-62 NSCLC = tested on: HOP-62 NSCLC
SK-OV-3 ovarian = tested on: SK-OV-3 ovarian
NCI/ADR-RES ovarian = tested on: NCI/ADR-RES ovarian
BT-549 breast = tested on: BT-549 breast
HOP-92 NSCLC = tested on: HOP-92 NSCLC
HCC-2998 colon = tested on: HCC-2998 colon
KM12 colon = tested on: KM12 colon
MOLT-4 leukemia = tested on: MOLT-4 leukemia
HS 578T breast = tested on: HS 578T breast
K-562 leukemia = tested on: K-562 leukemia
RXF 393 renal = tested on: RXF 393 renal
SK-MEL-28 melanoma = tested on: SK-MEL-28 melanoma
SR leukemia = tested on: SR leukemia
IGROV1 ovarian = tested on: IGROV1 ovarian
PC-3 prostate = tested on: PC-3 prostate

## COc1cccc(-n2ncc3c(N/N=C/c4cccc(F)c4)ncnc32)c1
SN12C renal
  GI50: 6.74 µM
  TGI: > 19.6 µM
NCI-H23 lung
  GI50: 11.3 µM
  TGI: > 25 µM
T-47D breast
  GI50: 6.41 µM
  TGI: > 19.2 µM
MCF7 breast
  GI50: > 14.6 µM
  TGI: > 25 µM
U251 CNS
  GI50: 4.66 µM
  TGI: 9.04 µM
RPMI-8226 leukemia
  GI50: > 25 µM
  TGI: > 25 µM
HT29 colon
  GI50: 12.9 µM
  TGI: > 25 µM
UACC-62 melanoma
  GI50: 11.1 µM
  TGI: > 25 µM
OVCAR-8 ovarian
  GI50: 7.16 µM
  TGI: 18 µM
A498 renal
  GI50: 5.13 µM
  TGI: 11.2 µM
786-0 renal
  GI50: 7.31 µM
  TGI: 20.8 µM
MDA-MB-231 breast
  GI50: 5.78 µM
  TGI: 15.6 µM
LOX IMVI melanoma
  GI50: 9.44 µM
  TGI: > 25 µM
M14 melanoma
  GI50: 11.3 µM
  TGI: > 25 µM
SK-MEL-5 melanoma
  GI50: 18.8 µM
  TGI: > 25 µM
SNB-75 CNS
  GI50: 5.05 µM
  TGI: 12.4 µM
DU-145 prostate
  GI50: 9.01 µM
  TGI: > 24.1 µM
UACC-257 melanoma
  GI50: 16.4 µM
  TGI: > 25 µM
MALME-3M melanoma
  GI50: 7.96 µM
  TGI: > 25 µM
ACHN renal
  GI50: 7.54 µM
  TGI: > 20.3 µM
MDA-MB-435
  GI50: 10.1 µM
  TGI: > 25 µM
OVCAR-4 ovarian
  GI50: 6.28 µM
  TGI: 13.5 µM
COLO 205 colon
  GI50: 8.06 µM
  TGI: > 22 µM
SF-295 CNS
  GI50: 8.19 µM
  TGI: > 17.6 µM
TK-10 renal
  GI50: 6.93 µM
  TGI: 18.9 µM
HL-60(TB) leukemia
  GI50: > 25 µM
  TGI: > 25 µM
SF-268 CNS
  GI50: 8.46 µM
  TGI: > 22 µM
HCT-15 colon
  GI50: 14.9 µM
  TGI: > 25 µM
SW-620 colon
  GI50: 16.8 µM
  TGI: > 25 µM
OVCAR-3 ovarian
  GI50: 5.42 µM
  TGI: 10.1 µM
UO-31 renal
  GI50: 6.73 µM
  TGI: > 16.4 µM
NCI-H226 lung
  GI50: 9.16 µM
  TGI: 24.5 µM
SNB-19 CNS
  GI50: 12.3 µM
  TGI: > 25 µM
SF-539 CNS
  GI50: 12.5 µM
  TGI: > 25 µM
A549 NSCLC
  GI50: 4.94 µM
  TGI: 10.6 µM
CCRF-CEM leukemia
  GI50: > 25 µM
  TGI: > 25 µM
HCT-116 colon
  GI50: 5.76 µM
  TGI: 11.3 µM
EKVX NSCLC
  GI50: 10.2 µM
  TGI: > 25 µM
NCI-H522 lung
  GI50: > 15.6 µM
  TGI: > 25 µM
CAKI-1 renal
  GI50: 8.59 µM
  TGI: 24.6 µM
NCI-H460 lung
  GI50: 6.05 µM
  TGI: 12.8 µM
SK-MEL-2 melanoma
  GI50: 12.3 µM
  TGI: > 25 µM
OVCAR-5 ovarian
  GI50: > 23.2 µM
  TGI: > 25 µM
HOP-62 NSCLC
  GI50: 5.87 µM
  TGI: 11.4 µM
SK-OV-3 ovarian
  GI50: 4.8 µM
  TGI: 9.14 µM
NCI/ADR-RES ovarian
  GI50: 8.11 µM
  TGI: > 25 µM
BT-549 breast
  GI50: 19.5 µM
  TGI: > 25 µM
HOP-92 NSCLC
  GI50: 5.59 µM
  TGI: 14.2 µM
HCC-2998 colon
  GI50: 20.3 µM
  TGI: > 25 µM
KM12 colon
  GI50: 14.7 µM
  TGI: > 25 µM
MOLT-4 leukemia
  GI50: > 25 µM
  TGI: > 25 µM
HS 578T breast
  GI50: 6.02 µM
  TGI: 15.6 µM
K-562 leukemia
  GI50: > 25 µM
  TGI: > 25 µM
RXF 393 renal
  GI50: 5.57 µM
  TGI: 12.7 µM
SK-MEL-28 melanoma
  GI50: 8.64 µM
  TGI: > 25 µM
SR leukemia
  GI50: 13.6 µM
  TGI: > 25 µM
IGROV1 ovarian
  GI50: 13.9 µM
  TGI: > 25 µM
PC-3 prostate
  GI50: 9.86 µM
  TGI: > 25 µM
